Data on three compounds can be found in US12350259B2, “Methods of treating migraine” (Allergan Pharmaceuticals International Limited, priority 2021, dated 2025).

Molecules are shown by their SMILES. Read-outs that look alike come from different tables or passages of the source.

Data set [1] can be described thus: Atogepant-itraconazole interaction study: safety and tolerability. Format: in vivo, human. The following applies: itraconazole alone. From the text:
The primary objective of this study was to assess the effects of multiple dose itraconazole on the pharmacokinetics of a single dose of atogepant. The primary endpoints were PK parameters of atogepant derived from plasma concentrations. The secondary objectives of the study were to assess the safety and tolerability of atogepant and itraconazole given alone and in combination, and to establish the correlation between concentrations of atogepant in dried blood sample (DBS) (obtained via finger stick) and plasma. The secondary endpoints included AEs, clinical laboratory parameters, vital signs, ECG, and physical examination, and correlation of concentrations of atogepant in DBS and plasma. Subjects who satisfied the inclusion and exclusion criteria were assigned to a single fixed-treatment sequence in which they received Treatment A followed by Treatment B; there was a 7-day washout period between treatments. • Treatment A: Single oral 60 mg dose of atogepant (tablet) under fasted conditions on Day 1 • Treatment B • Days 8-14: Itraconazole 200 mg (tablet) orally once daily under fed conditions. • Day 15: Itraconazole 200 mg coadministered with atogepant 60 mg (tablet) under fasted conditions. • Days 16 to 17: Itraconazole 200 mg (tablet) once daily under fed conditions.

Data set [2] in a line: Atogepant-quinidine gluconate interaction study: safety. Format: in vivo, human. The following applies: during quinidine gluconate administration; 33 enrolled. The text has this:
Atogepant PK parameters calculated were peak plasma concentration (Cmax); time to Cmax (tmax); and area under plasma concentration—time curve from time 0 to time t (AUC0-t) and infinity (AUC0-∞). […] Safety assessments included clinical laboratory values, vital signs, electrocardiograms, and […] adverse events (TEAEs).

For data set [3] the following is noted: topiramate; cited from earlier work.
A short description of data set [4]: Atogepant-topiramate interaction study: safety and tolerability. Format: in vivo, human.
The nature of data set [5]: Atogepant-topiramate interaction study, cohort 2: topiramate steady-state PK. The following applies: for AUC / Cmax: both sexes, human, plasma. Type of data set: in vivo, human. As to the method:
An open-label, single-center, multiple-dose 2-cohort, phase 1 trial was carried out to assess the potential of a PK DDI between atogepant and topiramate in healthy adult participants. Eligible participants were enrolled either in cohort 1 to evaluate the effect of topiramate 100 mg twice daily on the PK of atogepant […] once daily or in cohort 2 to evaluate the effect of atogepant 60 mg once daily on the PK of topiramate 100 mg twice daily. Participants in cohort 1 received atogepant alone on days 1-7 and atogepant plus topiramate on days 8-17. Participants in cohort 2 received topiramate alone on days 1-10 and topiramate plus atogepant on days 11-17.
The duration of the study was 25 days (±2 days), which included day −1 through the follow-up visit and excluded the screening period. The screening period was up to 21 days before day 1 and the intervention period was a total of 19 days, at which point the end of dosing visit was conducted. Cerebrospinal fluid (CSF) samples for measurement of atogepant concentration were collected via lumbar puncture in a subset of consenting participants in cohort 1. CSF samples were collected once from individual participants in the CSF collection subset at 2 or 6 hours after the morning dose on day 6 for cohort 1. Clinical laboratory tests were performed at the follow-up visit, which was conducted on day 24 (7 [±2] days after the last dose of study medication.
Participants were excluded if they had clinically significant abnormal electrocardiogram (ECG) results or QT prolongation (QTcF ≥450 msec for males, ≥470 for females), or any clinical condition or previous surgery that may affect the absorption, distribution, biotransformation, or excretion of atogepant or topiramate.
The primary endpoints were area under the plasma concentration-time curve during dosing interval at steady state (AUC0-tau,ss) and maximum plasma drug concentration at steady state (Cmax,ss) of atogepant and topiramate when coadministered and when administered alone. Additional PK parameters included time of maximum plasma drug concentration at steady state (Tmax,ss), average plasma drug concentration at steady state (Cavg,ss), and minimum plasma drug concentration at steady state (Cmin,ss) of topiramate and atogepant when coadministered and when administered alone.

The mark [6] stands for this setting: topiramate 100 mg BID + atogepant 60 mg QD, day 17.
[7] abbreviates: topiramate 100 mg BID alone, day 10.
Where [8] appears, read: with atogepant coadministration.

On to `CCC(C)n1ncn(-c2ccc(N3CCN(c4ccc(OCC5COC(Cn6cncn6)(c6ccc(Cl)cc6Cl)O5)cc4)CC3)cc2)c1=O` (stereo not drawn) [itraconazole, reference compound], for which, in data set [1], the “subjects experiencing constipation (TEAE)” value was determined as 1 subject and the “subjects experiencing headache (TEAE)” value is 2 subjects.
Take `C=C[C@H]1C[N@@]2CC[C@H]1C[C@@H]2[C@@H](O)c1ccnc2ccc(OC)cc12` [quinidine gluconate, reference compound]: the “participants discontinued because of TEAEs (all electrocardiogram QT prolongation)” value in data set [2] is listed as 10.
For `CC1(C)O[C@@H]2[C@@H](CO[C@@]3(COS(N)(=O)=O)OC(C)(C)O[C@@H]23)O1` [topiramate], in data set [3], the elimination half-life result is “approximately 21 hours”. The “Deaths, %” value in data set [4] (cohort 2, topiramate + atogepant (n = 24)) is given as “(0) %”. For the same compound, the “Deaths, %” value in data set [4] (cohort 2, topiramate alone (n = 25)) was “(0) %”. Further, in data set [4] (human, in vivo), the “TEAEs leading to discontinuation, %” value is recorded as “(8.0) %”; the “TESAEs, %” value is on record as “(0) %”; the “Treatment-related TEAEs, %” value is on record as “(52.0) %”; the “Treatment-related TESAEs, %” value is recorded as “(0) %”. In data set [4] (human, in vivo), this compound had a constipation reported of 2 participants and a nausea reported of 3 participants. Besides, the “TEAEs, %” value in data set [4] (human, in vivo, 10 days) is reported as “(64.0) %”. Further, the AUC in data set [5] (100 mg, Topiramate Alone, read-out: AUC0-tau,ss Geometric LSM) is 74400 ng·h/mL. Further, in data set [5] (100 mg, Topiramate Alone, read-out: Cmax,ss Geometric LSM), the peak concentration (Cmax) is 7500 ng/mL. Also, the AUC in data set [5] (100 mg, topiramate 100 mg BID alone, day 10, read-out: AUC0-tau,ss) was determined as 76500 ng·h/mL. Also, the Cmax in data set [5] (100 mg, topiramate 100 mg BID alone, day 10, read-out: Cmax,ss) worked out at 7700 ng/mL. Moreover, the AUC in data set [5] (Topiramate and Atogepant, read-out: AUC0-tau,ss Geometric LSM) came to 70300 ng·h/mL. Moreover, the Cmax in data set [5] (Topiramate and Atogepant, read-out: Cmax,ss Geometric LSM) was 7000 ng/mL. Besides, in data set [5] (topiramate 100 mg BID + atogepant 60 mg QD, day 17, read-out: AUC0-tau,ss), the AUC is 72600 ng·h/mL. The Cmax in data set [5] (topiramate 100 mg BID + atogepant 60 mg QD, day 17, read-out: Cmax,ss) is 7300 ng/mL. Moreover, the “delay of median Tmax,ss of topiramate” value in data set [5] (coadministered with atogepant) came out at 0.5 h. Further, in data set [5] (setting [6]), the “Cavg,ss” value is 6000 ng/mL, the “Cmin,ss” value came out at 4700 ng/mL and the “Tmax,ss (median)” value is on record as 2.0 h. In addition, in data set [5] (setting [7]), the “Cavg,ss” value came out at 6400 ng/mL, the “Cmin,ss” value is 5200 ng/mL and the “Tmax,ss (median)” value is recorded as 1.5 h. Moreover, in data set [5] (setting [8]), the “reduction of topiramate AUC0-tau,ss” value turned out to be 5% and the “reduction of topiramate Cmax,ss” value came to 6%.
